For 65 compounds, melting point results are on record in a melting point compilation (Tetko et al.; mined from patent text by program, amines drawn as free bases though some values may be those of a salt).

As for `CN1CCC(c2c(O)cc(O)c3c(=O)cc(-c4ccccc4Cl)oc23)C1CS` (stereo not given), the melting point (in general, the temperature, or range, at which the solid turns liquid) is 205 to 206 °C.

In turn, `CCOC(=O)c1nccc(C#N)c1N` displayed a melting point of 114 to 116 °C.

For the compound `Nc1ccccc1C(=O)c1cccc(O)c1`, the melting point is 130 to 132 °C.

`Fc1cc(Cl)c2ccc(C(F)(F)F)cc2n1` came in with a melting point of 94 to 95 °C.

As to `CCOC(=O)Cc1c2c(nn1CC)c(=O)[nH]c1ccccc12`, the melting point fell in the range of 233 to 235 °C.

The compound `Nc1c(Cl)cccc1SSc1cccc(Cl)c1N` had a melting point of 87 to 88 °C.

For the compound `CCCc1c(O)cc(O)c(C(=O)CCc2ccc(O)cc2)c1O`, the melting point is 216 to 218 °C.

On to `O=c1[nH]c2cc(Cl)ccc2c(O)c1Sc1ccccc1`, for which the melting point was > 300 °C.

`CN(C)S(=O)c1nc2ccccc2s1` (stereo not given) yielded a melting point of 121 to 122 °C.

For `CC(=O)NC[C@H]1CN(c2cccc(F)c2)C(=O)O1`, the melting point turned out to be 140 °C.

For the compound `CN(c1ccnc(Cl)n1)n1cccc1`, the melting point fell in the range of 102 to 103 °C.

The compound `O=C(O)[C@@H]1CC[C@H](c2ccccc2)N1C(=O)CCS` had a melting point of 61 to 64 °C.

With `c1ccc(C(c2ccc3[nH]c(-c4ccccn4)nc3c2)n2ccnc2)cc1` (stereo not given), the melting point came out at 123 °C.

For the compound `O=C(Nc1ccc2ccc(Cl)nc2n1)c1ccc(Cl)cc1`, the melting point worked out at 268 °C.

For the compound `O=C(NCCCn1ccnc1)Nc1cccc(C(F)(F)F)c1`, the melting point fell in the range of 105 to 108 °C.

In turn, `CCCCCCCCCCCCCCCCN[C@H](C(=O)N[C@H](C(=O)O)C(C)C)C(C)C` came in with a melting point of 120 to 123 °C.

As to `Cc1cccc(S(=O)(=O)N2Cc3ccccc3C2)c1`, the melting point was 175 to 177 °C.

As to `O=C(NC(=O)c1c(Cl)cccc1Cl)Nc1ccc(C(F)(F)F)cc1`, the melting point amounted to 200 °C.

Compound `Cc1c(-c2ccccc2)oc2c(C=CC(=O)O)cccc2c1=O` registered a melting point of 226 to 229 °C.

On to `CC(=O)Nc1ccc(C2=NNC(=O)Cc3cc4c(cc32)OCO4)cc1`, for which the melting point is 177 to 180 °C.

The compound `O=C(O)c1ccc(NC(=O)c2ccc(Br)nc2)nc1` gave a melting point of 270 to 272 °C.

Consider `Cc1nc2ccc3c(c2o1)C(CCNC(=O)C1CC1)CC3` (stereo not given), for which the melting point was 134 to 137 °C.

The compound `COCCn1nc2c(N)nc3ncccc3c2c1CC1CCOCC1` returned a melting point of 230 to 233 °C.

Compound `CC(C)(n1cncn1)C(O)(Cc1nc[nH]n1)c1ccc(C(F)(F)F)cc1F` (stereo not given) had a melting point of 174 to 175 °C.

Regarding `CCOC(=O)C1CN(Cc2ccccc2)C(=O)C(=C2SC=CS2)C1=O` (stereo not given), the melting point lay in the range of 127 to 129 °C.

The compound `CNc1coc2cc(NS(C)(=O)=O)c(Oc3ccccc3)cc2c1=O` came in with a melting point of 192 to 193 °C.

Take `O=c1nc(-c2ccccc2F)c2c3c(sc2[nH]1)CCCC3`: the melting point was in the range of 274 to 277 °C.

On to `Nc1c(C(=O)Nc2nnn[nH]2)oc2ccccc12`, for which the melting point stood at 185 °C.

As to `OC[C@H](O)CN1CCC[C@@H](Nc2nccc(-c3c(-c4cccc(O)c4)nc4sccn34)n2)C1`, the melting point is 185 to 187 °C.

For `CC(=O)NCc1ccc(CN2CCN(c3ccc(Cl)cn3)CC2)cc1`, the melting point lay in the range of 155 to 156 °C.

As to `O=C1C2=C(SCCO2)C(=O)N1c1ccc(Cl)cn1`, the melting point was determined as 152 °C.

For the compound `COc1cc(C2c3cc4c(cc3C(NC3=CC(=O)N(C)C3=O)C3COC(=O)C23)OCO4)cc(OC)c1O` (stereo not given), the melting point lay in the range of 238 to 241 °C.

In turn, `O=C(NCCCCCCOC(=O)Oc1ccc([N+](=O)[O-])cc1)OC1CCN(C(=O)Oc2ccc(Oc3ccccc3)cc2)CC1` gave a melting point of 117 to 120 °C.

The compound `C(=C1CCN(C(c2ccccc2)(c2ccccc2)c2ccccc2)CC1)c1ccc(C2=NCCO2)cc1` gave a melting point of 74 °C.

`COc1ccc(/C(=C/C(=O)O)c2cc(F)cc(F)c2)cc1` gave a melting point of 170 to 172 °C.

Regarding `Cn1c2cc(Cl)ccc2c(=O)c2cccn21`, the melting point was 172 to 173 °C.

`COC(=O)Nc1nc2c(C(C)C)cc(SC3=C(O)C[C@@](CCc4ccc(O)cc4)(C(C)C)OC3=O)c(C)c2s1` came in with a melting point of 150 to 151 °C.

`CCCSc1ccc(NS(=O)(=O)c2cccs2)c2[nH]c(C(=O)OCC)cc12` showed a melting point of 150 to 151 °C.

With `O=C(O)CCCCCCCCNS(=O)(=O)c1ccccc1`, the melting point lay within 82 to 84 °C.

For `Cn1cc(C(=O)NCc2ccc(Cl)cc2)c(=O)c2cc(CCCCCO)oc21`, the melting point lay within 151 to 152 °C.

`CN(C)c1cnn(C)c(=O)c1-c1ccccc1C=NO` had a melting point of 202 to 203 °C.

As to `CCC1(CCCCN2CCc3sccc3C2)C(=O)Nc2ccc(Br)cc21` (stereo not given), the melting point is 149 to 151 °C.

`COc1ccc2[nH]c(=O)cc(C)c2c1`: the melting point fell in the range of 270 to 273 °C.

As to `CSCc1cn(C)c2cc(C(C)(C)C)ccc2c1=O`, the melting point lay within 114 to 116 °C.

Take `Cc1nnc2n1-c1ccc(Cl)cc1C(N1CC=CCC1)=NC2`: the melting point was 192 to 194 °C.

The compound `CN1c2ccccc2CC(=O)c2ccccc21` had a melting point of 92 to 93 °C.

With `c1ccc(-c2nnc3n2-c2ccccc2Cn2cccc2-3)nc1`, the melting point lay within 255 to 257 °C.

Regarding `CCOC(=O)COc1cc(C)nc2c(OCc3c(Cl)ccc(N(C)C(=O)CNC(=O)C=Cc4ccc(C(=O)NC)cc4)c3Cl)cccc12`, the melting point was in the range of 134 to 147 °C.

Turning to `CCCCCCCCCCCCCCc1ccc(OCC(O)CO)cc1` (stereo not given), the melting point was in the range of 81.5 to 83.5 °C.

Regarding `CCCc1[nH]cnc1C(=O)OCC`, the melting point was 175 to 179 °C.

With `CC(N)c1ccc2c(c1)CCCN2C(=O)OC(C)(C)C` (stereo not given), the melting point was 73 to 75 °C.

On to `CCCCC1CCC(c2ccc(Cc3ccc(N)cc3)cc2)(c2ccc(Cc3ccc(N)cc3)cc2)CC1`, for which the melting point was 58.5 to 60.1 °C.

On to `CC[C@@]12C[C@H](O)[C@](O)(c3c(F)cccc3F)C[C@H]1CCc1cc(O)ccc12`, for which the melting point was in the range of 198 to 200 °C.

`O=C(O)Cn1c(-c2cccc(C(F)(F)F)c2)nc2cccnc21`: the melting point is 240 to 242 °C.

The compound `OCC1OC(n2cnc3c(NNC4COc5c(Cl)cccc5C4)ncnc32)C(O)C1O` (stereo not given) returned a melting point of 137 to 139 °C.

With `CC(=O)Nc1ccc(OC(C)(C)c2nc3ccccc3s2)cc1`, the melting point lay in the range of 149 to 150 °C.

Turning to `CCOC(=O)c1c[nH]c2nc(-c3ccncc3)c(F)cc2c1=O`, the melting point was in the range of 280 to 285 °C.

`CC(C)[C@@H](NS(=O)(=O)N1CCC(Oc2ccc(Cl)cn2)CC1)C(=O)NO` yielded a melting point of 97 to 98.4 °C.

For `O=C(O)Cn1c(=O)n(S(=O)(=O)c2ccc(Cl)cc2)c(=O)c2ccc(Cl)cc21`, the melting point was in the range of 194 to 195 °C.

The compound `Cc1ccc(S(=O)(=O)N2CCN(S(=O)(=O)c3ccc(C)cc3)CC(=O)NCC(C3CCCCC3)NC(=O)CN(S(=O)(=O)c3ccc(C)cc3)CC2)cc1` (stereo not given) had a melting point of 224 °C.

`CCC(CC)C(=O)Nc1ccco1` displayed a melting point of 100 °C.

On to `COc1cc(C(C)O)c(F)cc1Cl` (stereo not given), for which the melting point was 68.5 to 69.5 °C.

Turning to `Fc1ccc2[nH]cc(CCCNCCOc3cccc4[nH]ccc34)c2c1`, the melting point was 70 to 73 °C.

For `Cn1c(CNCC2(C)COC2)cc2cc(NC(=O)c3ccc(OCC4CC4)cc3)ccc21`, the melting point was 154 to 155 °C.

The compound `Nc1nc(=O)n(CCCCn2cncn2)cc1F` showed a melting point of 197 to 200 °C.
